# Assay results published in PMC10489073 (Molecules, 2023).
# Key:
# [1] = test system: macrophage phagocytic activity (MPA) of the reticular endothelial system; assay: Macrophage phagocytosis by carbon clearance test; type: in vivo, Kunming mice; settings: twice a week for two weeks; for Carbon Clearance Index (K): Ctrl 0.057 ± 0.0061; for Phagocytosis Index (α): Ctrl 5.36 ± 0.19
# Procedure: The animal experiments were conducted under the guidelines of the “Regulations for the Administration of Affairs Concerning Experimental Animals” (revised 2017, State Council No. 676). Kunming mice were randomly divided into control groups and treatment groups. After oral administration of test compounds twice a week for two weeks, the mice were injected with carbon ink suspension (Indian Ink, Camel) (100 μL/10 g of body weight) via the tail vein. Two and ten minutes after the injection of carbon suspension, the blood samples were collected from a retro-orbital vein. A total of 25 μL of a blood sample was directly added into 2 mL of 0.1% sodium carbonate solution. The absorbance of the sample was measured at 600 nm using a UV-visible spectrophotometer. The K value was calculated by the formula Log (OD2) − Log (OD10)/(T2 − T1), where OD2 and OD10 were the absorbance of blood at 2 and 10 min, respectively; T2 is the last time point of blood collection; T1 is the first time point of blood collection. The α value was calculated by the formula (k^1/3 × body weight)/(liver weight + spleen weight).
# [2] = In vivo pharmacokinetics; settings: SD rats; for AUC(0-inf): SD
# Procedure: The animal experiments were conducted under the guidelines of the “Regulations for the Administration of Affairs Concerning Experimental Animals” (revised 2017, State Council No. 676). The pharmacokinetic properties (PK) were performed in SD rats, and the procedures conducted were in accordance with institutional guidelines. Male SD rats (weighting 200 ± 20 g) fasted for 12 h and were divided into two groups, three in each group: oral administration of BC-05 (10 mg/kg) and intravenous administration of BC-05 (10 mg/kg). A total of 300 μL of a blood sample was collected through retro-orbital plexus from the rats in each group at 0 h, 0.033 h, 0.167 h, 0.5 h, 0.75 h, l h, 2 h, 4 h, 6 h, 8 h, 10 h, and 24 h. Plasma samples were placed in microcentrifuge tubes containing Li-heparin to avoid coagulant, separated by centrifugation at 12,000 rpm for 10 min, and stored at −80 °C until sample analysis. After the precipitation of proteins, samples were centrifuged at 15,000 rpm for 10 min, and the supernatant was reserved for HPLC-MS/MS analysis.
# [3] = test system: P21WAF1/Cip1 in MM1.S cells; assay: Western blot analysis, P21; type: cell-based; settings: 24 h
# Procedure: MM1.S cells were seeded in 6-well plates with a density of 2.5 × 10^6 cells/well. Then, the cells were cultured with 1, 2, and 4 μM BC-05 and 10 nM ixazomib, respectively. After incubation for 24 h, the cells were collected, and total proteins were extracted via RIPA containing a 2% protease inhibitor cocktail. Cell lysates were centrifugated at 4 °C, 12,000 rpm for 15 min, and the supernatants were collected and quantified with BCA assay. After being boiled at 100 °C for 10 min in a NuPAGE lithium dodecyl sulfate (LDS) sample buffer (5X), equivalent samples were separated by 12% sodium dodecyl-sulfate polyacrylamide gel electrophoresis at 120 V, transferred to immune-blot poly(vinylidene fluoride) (PVDF) membranes (Merck Millipore, Burlington, MA, USA) at 4 °C and then blocked by 5% non-fat milk in TBST for an hour. The membranes were incubated overnight at 4 °C with certain primary antibodies, which were deliquates by an antibody dilution buffer (Boster Bio, Pleasanton, CA, USA) and then washed with TBST. After incubating with a horseradish (HRP)-conjugated secondary antibody for 1 h at room temperature, the membranes were washed five times with TBST for 5 min. The images were visualized on the Tanon-5200 Chemiluminescent Imaging System via luminol reaction. […]
# [4] = test system: B16F10 cells; assay: Survival time in mice bearing B16F10 cells; type: in vivo, C57BL/6 mice; settings: for median survival time (MST): twice a week for two weeks, vehicle group 16 days
# Procedure: The animal experiments were conducted under the guidelines of the “Regulations for the Administration of Affairs Concerning Experimental Animals” (revised 2017, State Council No. 676). Female C57/B6 mice at 5 to 6 weeks were implanted via intraperitoneal (ip) injection with 5.0 × 10^6 B16F10 cells per individual and randomly assigned into control groups and treatment groups. Seven days after inoculation, mice from the control group were treated orally with DMSO in a vehicle, whereas the compound group mice were treated with specified concentrations of compounds by oral administration twice a week for two weeks. The survival percentage of the mice in each group was recorded and plotted. The anti-tumor activity of the drug was evaluated by measuring the median survival time (MST) for each group.
# [5] = test system: MM1.S cells; assay: Cell cycle assay (PI flow cytometry); type: cell-based; settings: MM1.S, 1, 2 and 4 µM, 48 h
# Procedure: For the cell cycle assay, MM1.S cells were plated in 6-well plates with a density of 2.5 × 10^6 cells per well. A total of 12 h later, BC-05 (1, 2, and 4 μM), ixazomib (10 nM), or a vehicle (0.5% DMSO) was added, and the mixture was incubated for 48 h. Subsequently, cells were harvested, washed with cold PBS, and fixed in 75% cold ethanol at −20 °C overnight. After washing off the ethanol, fixed cells were treated with RNase A, dyed with propidium iodide solution (20 μg/mL), and incubated in the dark at 37 °C for 30 min. The final assay was analyzed using a Beckman flow cytometer.
# [6] = test system: subcutaneous P3x63Ag8.653 tumor; assay: In vivo P3x63Ag8.653 tumor transplant model; design: species or system mice
# Procedure: The animal experiments were conducted under the guidelines of the “Regulations for the Administration of Affairs Concerning Experimental Animals” (revised 2017, State Council No. 676). For the P3x63Ag8.653 tumor development, male mice were subcutaneously injected with 200 μL murine P3x63Ag8.653 cells with a density of 1 × 10^7/mL. On the eighth day after injection, the transplanted mice were randomized into treatment and control groups. The tested compounds were administrated orally at the prescribed dose biweekly for two weeks. After two weeks of administration, mice were executed, and the tumor tissues were dissected and weighed. T/C was calculated according to the following formula: T/C = the mean RTV of the treated group/the mean RTV of the control group, where RTV is the relative tumor volume = Vt/V0 (Vt, the tumor volume measured at the end of treatment; V0, the tumor volume measured at the beginning of treatment).
# [7] = male, rat, plasma, iv, i.v. at 10 mg/kg, n = 3
# [8] = male, rat, plasma, oral at 10 mg/kg, n = 3
smiles,measurement,setting,value
"CC(C)C[C@H](NC(=O)[C@@H](O)[C@H](N)Cc1ccccc1)B1OC(=O)C(CC(=O)O)(CC(=O)O)O1 [BC-05, 2,2′-(2-((R)-1-((2S,3R)-3-amino-2-hydroxy-4-phenylbutanamido)-3-methylbutyl)-5-oxo-1,3,2-dioxaborolane-4,4-diyl)diacetic acid]",Carbon Clearance Index (K),[1]; 0.006 mmol/kg oral,0.066 ± 0.0077
same,Phagocytosis Index (α),[1]; 0.006 mmol/kg oral,6.60 ± 0.26
same,Carbon Clearance Index (K),[1]; 0.008 mmol/kg oral,0.076 ± 0.0016
same,Phagocytosis Index (α),[1]; 0.008 mmol/kg oral,6.61 ± 0.05
same,CL,"[2]; oral at 10 mg/kg, n = 3",7.69 ± 0.66 L/h/kg
same,AUC0–∞,"[2]; oral at 10 mg/kg, n = 3, 10 mg/kg",1307.71 ± 116.74 μg/L∗h
same,AUC(0-inf),"[2]; male, rat, plasma, iv, 10 mg/kg, i.v. at 10 mg/kg, n = 3",5150 ± 482 ng·h/mL
same,AUC(0-inf),"[2]; male, rat, plasma, po, 10 mg/kg, oral at 10 mg/kg, n = 3",1310 ng·h/mL
same,Cmax,[2]; [7],10500 ng/mL
same,Tmax,[2]; [7],0.03 h
same,clearance,[2]; [7],32.5 mL/min/kg
same,half-life,[2]; [7],103 ± 40.2 min
same,bioavailability,"[2]; male, rat, plasma, oral at 10 mg/kg vs i.v. 10 mg/kg, read-out: F (oral bioavailability)",24.9 ± 4.32%
same,Cmax,[2]; [8],373 ± 49.6 ng/mL
same,Tmax,[2]; [8],2 h
same,half-life,[2]; [8],141 ± 73.8 min
same,P21WAF1/Cip1 level (Western blot),[3],significantly upregulates
same,MST increase compared to the vehicle group,[4]; 0.008 mmol/kg oral,1.4 fold
same,median survival time (MST),[4]; 0.008 mmol/kg oral,22 days
same,MST increase compared to the vehicle group,[4]; 0.012 mmol/kg oral,1.6 fold
same,median survival time (MST),[4]; 0.012 mmol/kg oral,25 days
same,cell cycle arrest,[5],blocks MM1.S cells in the Sub-G1 phase
same,T/C (relative tumor volume),"[6]; 0.008 mmol/kg oral, two weeks",31.2%
same,body weight loss and side effects,"[6]; tumor-bearing mice, during oral administration",No obvious body weight loss and discernible side effects
